The record followed here is article PMC12087874, “Biaryl Phosphates and Phosphonates as Selective Inhibitors of the Transcription Factor STAT4” (Angewandte Chemie (International Ed. in English), 2025).

The target of one assay is T1, STAT6 (Homo sapiens, UniProt P42226).
T1 sequence (P42226 1-847): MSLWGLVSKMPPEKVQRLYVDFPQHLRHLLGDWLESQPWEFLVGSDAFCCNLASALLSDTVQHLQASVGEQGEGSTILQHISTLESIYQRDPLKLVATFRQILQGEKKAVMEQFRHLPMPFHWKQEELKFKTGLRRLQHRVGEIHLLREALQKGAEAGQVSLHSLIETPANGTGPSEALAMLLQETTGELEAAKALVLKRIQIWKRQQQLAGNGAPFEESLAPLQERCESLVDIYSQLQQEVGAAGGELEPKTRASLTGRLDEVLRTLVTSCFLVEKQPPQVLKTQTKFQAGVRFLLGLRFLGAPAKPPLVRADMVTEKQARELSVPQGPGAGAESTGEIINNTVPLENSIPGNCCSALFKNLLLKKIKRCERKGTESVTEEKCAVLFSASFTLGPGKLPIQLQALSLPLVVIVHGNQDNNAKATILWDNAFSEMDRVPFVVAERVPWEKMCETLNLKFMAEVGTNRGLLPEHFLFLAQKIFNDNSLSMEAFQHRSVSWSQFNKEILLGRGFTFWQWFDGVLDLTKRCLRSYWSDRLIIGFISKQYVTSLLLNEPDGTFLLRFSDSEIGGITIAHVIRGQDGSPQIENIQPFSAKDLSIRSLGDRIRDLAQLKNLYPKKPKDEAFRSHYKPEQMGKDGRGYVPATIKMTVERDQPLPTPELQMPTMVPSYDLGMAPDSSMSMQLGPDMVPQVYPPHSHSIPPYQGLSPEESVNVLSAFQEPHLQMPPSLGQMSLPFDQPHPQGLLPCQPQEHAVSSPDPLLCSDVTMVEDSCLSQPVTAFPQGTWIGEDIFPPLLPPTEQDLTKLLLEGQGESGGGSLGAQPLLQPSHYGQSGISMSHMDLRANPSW
As to the kind of experiment: Competitive fluorescence polarization (FP) assay, STAT6 SH2 domain. The settings on record: for Ki: Ki derived from IC50; for IC50: mean ± SD, n = 3. The format is binding. The protocol: (§1) Fluorescence polarization assays
(§2) Competitive fluorescence polarization assays, which measure the abilities of test compounds (dissolved in DMSO) to displace a fluorescent-labeled peptide from the SH2 domain of a STAT protein, were carried out essentially as described. Proteins were used at the following final concentrations: 23 nM or 28 nM for STAT4; between 56 nM and 91 nM for STAT1; 107 nM or 110 nM for STAT3; between 131 nM and 177 nM for STAT5a; between 62 nM and 85 nM for STAT5b; and 101 nM or 106 nM for STAT6. These concentrations represent the approximate […]
(§3) dissociation constant for peptide binding of the respective protein batches used in the assays.
(§4) The following peptides were used: 5-carboxyfluorescein-GpYLPQNID-OH for STAT4; 5-carboxyfluorescein-GpYDKPHVL for STAT1; 5-carboxyfluorescein-GpYLPQTV-NH2 for STAT3; 5-carboxyfluorescein-GpYLVLDKW for STAT5a/b, and 5-carboxyfluorescein- […]
(§5) Gp[…]-OH for STAT6. All peptides were used at a final concentration of 10 nM. The buffer consisted of 10 mM Tris (pH 8.0), 50 mM NaCl, 1 mM EDTA, 1 mM DTT, 0 .1 % Nonidet P-40 substitute, and 2 % DMSO. After incubation of protein and test compound for 1 h at room temperature, the fluorescent -labeled peptide was added. Samples were transferred to 384 - well microtiter plates and fluorescence polarization was read after an additional 60 min of incubation time. Measurements were performed in triplicate. Percent binding was calculated based on a logarithmic curve fit using OriginPro 8G software. IC 50 values were converted to Ki-values via the published equation[3] using the corresponding Excel spread sheet […]
(§6) https://websites.umich.edu/~shaomengwanglab/software/calc_ki/index.html .
(§7) Error bars represent standard deviations. Ligand efficiencies (LE) were calculated by the formula LE = -1,37 x log Ki / number of non-hydrogen atoms.[4] […]

For a further assay, the target named is T2, STAT1 (Homo sapiens, UniProt P42224).
T2 sequence (P42224 1-750): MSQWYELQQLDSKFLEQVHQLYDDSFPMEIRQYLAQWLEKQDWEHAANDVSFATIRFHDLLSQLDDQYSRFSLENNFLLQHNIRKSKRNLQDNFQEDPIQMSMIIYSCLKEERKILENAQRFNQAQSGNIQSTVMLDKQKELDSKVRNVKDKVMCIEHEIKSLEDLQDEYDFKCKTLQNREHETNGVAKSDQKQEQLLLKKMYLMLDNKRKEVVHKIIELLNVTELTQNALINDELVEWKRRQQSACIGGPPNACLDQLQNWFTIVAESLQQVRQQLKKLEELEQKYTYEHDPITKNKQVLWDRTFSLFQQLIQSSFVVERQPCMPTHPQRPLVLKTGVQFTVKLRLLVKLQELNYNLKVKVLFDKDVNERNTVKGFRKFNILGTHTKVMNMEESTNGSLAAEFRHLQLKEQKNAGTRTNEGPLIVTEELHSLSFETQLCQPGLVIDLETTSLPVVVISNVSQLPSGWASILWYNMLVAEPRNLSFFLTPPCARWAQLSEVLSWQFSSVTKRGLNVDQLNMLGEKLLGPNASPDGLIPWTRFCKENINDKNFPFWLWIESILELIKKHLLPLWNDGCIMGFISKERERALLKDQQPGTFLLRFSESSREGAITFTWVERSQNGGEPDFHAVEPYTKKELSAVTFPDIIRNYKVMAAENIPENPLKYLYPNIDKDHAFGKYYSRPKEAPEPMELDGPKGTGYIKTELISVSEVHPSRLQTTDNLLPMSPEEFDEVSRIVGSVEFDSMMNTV
As to the kind of experiment: Competitive fluorescence polarization (FP) assay, STAT1 SH2 domain. The format is binding. The settings on record: for IC50: mean ± SD, n = 3; for Ki: tracer 5-carboxyfluorescein-GpYDKPHVL, Ki derived from IC50. The protocol:
as §1, §2, §3, §4, §5, §6, §7

At STAT6, `O=P(O)(O)Oc1ccc(-c2ccccc2)cc1` [Compound 1, para‐biphenyl phosphate] displayed a Ki of 7.3 ± 0.4 µM and an IC50 of 15 ± 1 µM. At STAT1, this compound had an IC50 of 16 ± 3 µM and an inhibition constant (Ki) of 8.1 ± 1.4 µM.

On to `O=P(O)(O)Oc1ccc(-c2ccc3ccccc3c2)cc1` [Compound 6g], for which, at STAT6, affinity was put at a Ki of 9.3 ± 1.1 µM and the IC50 came to 19 ± 2 µM. At STAT1, this compound returned a half-inhibitory concentration (IC50) of 22 ± 2 µM and a Ki of 11 ± 1 µM.

Regarding `O=P(O)(O)Oc1ccc(-c2ccccc2)cc1F` [Compound 6h], the Ki at STAT6 was 46 ± 3 µM; at STAT1, 6.3 ± 0.6 µM. Also, the IC50 turned out to be 90 ± 7 µM on STAT6 and 13 ± 1 µM at STAT1.

Turning to `O=P(O)(O)Oc1ccc(-c2ccc3ccccc3c2)cc1F` [Compound 6m], the Ki at STAT6 is 29 ± 2 µM; on STAT1, 3.8 ± 0.3 µM. Besides, the IC50 was found to be 57 ± 4 µM at STAT6 and 7.8 ± 0.6 µM on STAT1.

On STAT6, `O=P(O)(O)C(F)(F)c1ccc(-c2ccc3ccccc3c2)cc1F` [Compound 8a] had a Ki of 15 ± 2 µM and an IC50 of 30 ± 3 µM. In addition, at STAT1, the IC50 was determined as 63 ± 3 µM and the Ki is 36 ± 2 µM.

On STAT6, `Cc1cc(-c2ccc(C(F)(F)P(=O)(O)O)c(F)c2)cs1` [Compound 8k] yielded a Ki of 13 ± 1 µM and a concentration for half-maximal inhibition (IC50) of 26 ± 2 µM. In addition, on STAT1, the IC50 amounted to 48 ± 4 µM and the affinity, expressed as Ki, was 24 ± 2 µM.

The term Ki denotes the dissociation constant of the complex between target and ligand, obtained from inhibition or displacement. A higher Ki goes with a looser hold on the target. Broadly, the IC50 is the concentration that inhibits the measured activity by half. Read a low IC50 as higher potency.
